Calls of active or inactive are those of the source.
Tests used:
[1] = target: T1, Nuclear factor erythroid 2-related factor 2 (Homo sapiens) (UniProt Q16236); assay: Activation of Nrf2 in human L02 cells assessed as increase in HO-1 expression at 10 uM measured after 4 to 72 hrs hrs by Western blot analysis; format: cell-based
T1 sequence (whole entry): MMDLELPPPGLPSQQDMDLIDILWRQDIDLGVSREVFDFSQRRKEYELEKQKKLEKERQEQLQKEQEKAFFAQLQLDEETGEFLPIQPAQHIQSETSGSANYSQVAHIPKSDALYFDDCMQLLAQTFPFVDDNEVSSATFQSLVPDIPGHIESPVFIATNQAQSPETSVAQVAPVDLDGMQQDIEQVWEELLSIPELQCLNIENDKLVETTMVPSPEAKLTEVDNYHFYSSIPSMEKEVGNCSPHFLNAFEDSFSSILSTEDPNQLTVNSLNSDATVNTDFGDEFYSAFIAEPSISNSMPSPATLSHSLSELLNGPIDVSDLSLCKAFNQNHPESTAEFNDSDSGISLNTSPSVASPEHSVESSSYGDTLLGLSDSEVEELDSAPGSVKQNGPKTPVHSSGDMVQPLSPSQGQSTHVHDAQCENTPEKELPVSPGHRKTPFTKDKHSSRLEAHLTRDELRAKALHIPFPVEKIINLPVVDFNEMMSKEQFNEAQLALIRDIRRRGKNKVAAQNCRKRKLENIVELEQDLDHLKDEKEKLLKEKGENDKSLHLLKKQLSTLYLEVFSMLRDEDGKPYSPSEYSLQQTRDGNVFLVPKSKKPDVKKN

[2] = target: T1, Nuclear factor erythroid 2-related factor 2 (Homo sapiens); assay: Activation of Nrf2 in human L02 cells harboring control siRNA assessed as increase in HO-1 expression at 10 uM measured after 10 hrs by Western blot analysis; format: cell-based
[3] = tested on: L02; assay: cells; details: Homo sapiens, L02, read-out: Activity
Description: Cytoprotective activity against APAP-induced apoptosis in human L02 cells assessed as viable cells at 10 uM preincubated for 12 hrs followed by APAP addition and measured after 12 hrs by FITC-Annexin V/propidium iodide staining based flow cytometry (Rvb = 50.6%)

[4] = tested on: L02; assay: Upregulation of NEFL2L mRNA expression in human L02 cells harboring Nrf2 siRNA at 10 uM measured after 10 hrs by trizol reagent based qRT-PCR analysis; format: functional, cell-based
[5] = tested on: Mus musculus; assay: Protection against APAP-induced hepatotoxicity in C57BL/6 mouse assessed as decrease in ALT level at 10 mg/kg, ip treated 2 hrs prior to 22 hrs starvation followed by APAP challenge and measured after 6 hrs; format: functional, organism-based
[6] = target: T1, Nuclear factor erythroid 2-related factor 2 (Homo sapiens); assay: Activation of Nrf2 in human L02 cells assessed as increase in GCLM expression measured after 12 hrs by Western blot analysis; format: cell-based
[7] = tested on: L02; assay: Upregulation of GCLM expression in human L02 cells harboring Nrf2 siRNA at 10 uM measured after 10 hrs by Western blot analysis; format: functional, cell-based
[8] = tested on: L02; details: Homo sapiens, 5 to 10 uM
Description: Cytoprotective activity against APAP-induced hepatotoxicity in human L02 cells assessed as inhibition of IL1beta production at 5 to 10 uM preincubated for 12 hrs followed by APAP stimulation and measured after 24 hrs by ELISA

[9] = tested on: Mus musculus; assay: Protection against APAP-induced hepatotoxicity in C57BL/6 mouse assessed as decrease in Nrf2 expression in liver at 10 to 40 mg/kg, ip treated 2 hrs prior to 22 hrs starvation followed by APAP challenge and measured after 6 hrs by Dako/Mayer's hematoxylin staining-based immunohistochemical analysis; format: functional, organism-based
[10] = tested on: L02; assay: Upregulation of NQO-1 mRNA expression in human L02 cells harboring Nrf2 siRNA at 10 uM measured after 10 hrs by trizol reagent based qRT-PCR analysis; format: functional, cell-based
[11] = tested on: L02; assay: Cytoprotective activity against APAP-induced hepatotoxicity in human L02 cells harboring Nrf2 siRNA assessed as increase in cell viability at 5 to 10 uM preincubated for 12 hrs followed by APAP addition and measured after 24 hrs by MTT assay; format: functional, cell-based
[12] = target: T1, Nuclear factor erythroid 2-related factor 2 (Homo sapiens); assay: Activation of Nrf2 in human L02 cells assessed as increase in NQO-1 expression at 10 uM measured after 4 to 72 hrs hrs by Western blot analysis; format: cell-based
[13] = tested on: Mus musculus; assay: Protection against APAP-induced hepatotoxicity in C57BL/6 mouse assessed as decrease in HO-1 expression in liver at 10 to 40 mg/kg, ip treated 2 hrs prior to 22 hrs starvation followed by APAP challenge and measured after 6 hrs by Dako/Mayer's hematoxylin staining-based immunohistochemical analysis; format: functional, organism-based
[14] = target: T1, Nuclear factor erythroid 2-related factor 2 (Homo sapiens); assay: Activation of Nrf2 in human L02 cells assessed as increase in NQO-1 expression measured after 12 hrs by Western blot analysis; format: cell-based
[15] = tested on: Mus musculus; assay: Protection against APAP-induced hepatotoxicity in C57BL/6 mouse assessed as destruction of liver structure at 10 to 40 mg/kg, ip treated 2 hrs prior to 22 hrs starvation followed by APAP challenge and measured after 6 hrs by H and E staining-based light microscopic analysis; format: functional, organism-based
[16] = tested on: Mus musculus; assay: Protection against APAP-induced hepatotoxicity in C57BL/6 mouse assessed as decrease in reactive oxygen species level in liver at 10 to 40 mg/kg, ip treated 2 hrs prior to 22 hrs starvation followed by APAP challenge and measured after 6 hrs; format: functional, organism-based
[17] = target: T1, Nuclear factor erythroid 2-related factor 2 (Homo sapiens); assay: Activation of Nrf2 in human L02 cells harboring control siRNA assessed as increase in HO-1 mRNA expression at 10 uM measured after 10 hrs by trizol reagent based qRT-PCR analysis; format: cell-based
[18] = tested on: Mus musculus; assay: Protection against APAP-induced hepatotoxicity in C57BL/6 mouse assessed as reduction in liver apoptosis at 10 to 40 mg/kg, ip treated 2 hrs prior to 22 hrs starvation followed by APAP challenge and measured after 6 hrs by TUNEL assay; format: functional, organism-based
[19] = tested on: L02; details: Homo sapiens, 5 to 10 uM; remark: listed apart in the source
Description: Cytoprotective activity against APAP-induced hepatotoxicity in human L02 cells assessed as inhibition of IL6 production at 5 to 10 uM preincubated for 12 hrs followed by APAP stimulation and measured after 24 hrs by ELISA

[20] = target: T1, Nuclear factor erythroid 2-related factor 2 (Homo sapiens); assay: Activation of Nrf2 in human L02 cells assessed as increase in HO-1 expression measured after 12 hrs by Western blot analysis; format: cell-based
[21] = tested on: Mus musculus; assay: Protection against APAP-induced hepatotoxicity in C57BL/6 mouse assessed as decrease in GCLM expression in liver at 10 to 40 mg/kg, ip treated 2 hrs prior to 22 hrs starvation followed by APAP challenge and measured after 6 hrs by Dako/Mayer's hematoxylin staining-based immunohistochemical analysis; format: functional, organism-based
[22] = tested on: Mus musculus; assay: Protection against APAP-induced hepatotoxicity in C57BL/6 mouse assessed as decrease in disease score at 10 to 40 mg/kg, ip treated 2 hrs prior to 22 hrs starvation followed by APAP challenge and measured after 6 hrs by H and E staining-based light microscopic analysis; format: functional, organism-based
[23] = target: T1, Nuclear factor erythroid 2-related factor 2 (Homo sapiens); assay: Activation of Nrf2 in human L02 cells assessed as increase in NEFL2L expression measured after 12 hrs by Western blot analysis; format: cell-based
[24] = target: T1, Nuclear factor erythroid 2-related factor 2 (Homo sapiens); assay: Activation of Nrf2 in human L02 cells assessed as increase in NQO-1 mRNA expression measured after 12 hrs by trizol reagent based qRT-PCR analysis; format: cell-based
[25] = tested on: L02; assay: Upregulation of HO-1 mRNA expression in human L02 cells harboring Nrf2 siRNA at 10 uM measured after 10 hrs by trizol reagent based qRT-PCR analysis; format: functional, cell-based
[26] = tested on: Mus musculus; assay: Protection against APAP-induced hepatotoxicity in C57BL/6 mouse assessed as decrease in IL1beta production at 10 mg/kg, ip treated 2 hrs prior to 22 hrs starvation followed by APAP challenge and measured after 6 hrs; format: functional, organism-based
[27] = target: T1, Nuclear factor erythroid 2-related factor 2 (Homo sapiens); assay: Activation of Nrf2 in human L02 cells assessed as increase in HO-1 mRNA expression measured after 12 hrs by trizol reagent based qRT-PCR analysis; format: cell-based

COc1ccc(S(=O)(=O)N(CC(=O)O)c2ccc(N3CCC[C@H]3C(=O)O)c3ccccc23)cc1
active: Activity [1] | Activity [2] | Activity [5] | Activity [6] Dose-dependent effect | inhibition [8] | Activity [9] | Activity [12] | Activity [13] | Activity [14] Dose-dependent effect | Activity [15] | Activity [16] | Activity [17] | Activity [18] | inhibition [19] | Activity [20] Dose-dependent effect | Activity [21] | Activity [22] | Activity [23] Dose-dependent effect | Activity [24] Dose-dependent effect | Activity [26] | Activity [27] Dose-dependent effect
76%: viability at 10 µM [3]
inactive: Activity [4] | Activity [7] | Activity [10] | Activity [11] | Activity [25]

Source: ChEMBL document CHEMBL4364299, “Discovery of a Potent Kelch-Like ECH-Associated Protein 1-Nuclear Factor Erythroid 2-Related Factor 2 (Keap1-Nrf2) Protein-Protein Interaction Inhibitor with Natural Proline Structure as a Cytoprotective Agent against Acetaminophen-Induced Hepatotoxicity” (J Med Chem, 2019)
